The values that follow come from article PMC4112151 (Bioorganic & medicinal chemistry, 2014).

Assay [1] addresses T1, MOPr (Homo sapiens, UniProt P35372). Kind of assay: [35S]GTPγS binding, CHO membranes, standard DAMGO. Type of assay: biochemical. The settings on record: Ke/nM MOPr, antagonist Ke versus DAMGO, single agonist concentration. In general terms: GTPγS resists hydrolysis and so accumulates on activated G proteins.
Assay [2] has as its target T2, KOPr (Homo sapiens, UniProt P41145). Put plainly: [35S]GTPγS binding, CHO membranes, standard U69593. Type of assay: biochemical. The note with it: for Kd: Ke/nM KOPr, antagonist Ke versus U69593, single agonist concentration; for fold more potent as KOPr antagonist than 17-methyl equivalent: ratio of Ke: 5k vs 5b, 5i vs 5e.
Assay [3] addresses T3, DOPr (Homo sapiens, UniProt P41143). Put plainly: [35S]GTPγS binding, CHO membranes, standard DPDPE. The assay is classed as biochemical. The note with it: for Kd: Ke/nM DOPr, antagonist Ke versus DPDPE, single agonist concentration.
Assay [4] has as its target T2, KOPr. Type of assay: binding.
Assay [5] has as its target T3, DOPr. Type of assay: binding.
In assay [6] the test system is DOPr. The note with it: cited from earlier work.
The target in assay [7] is T1, MOPr. The assay is classed as binding.
In assay [8] the test system is MOPr. The note with it: read-out: EC50 MOPr partial agonist activity in [35S]GTPγS assay; cited from earlier work.
For assay [9], the system named is MOPr. Kind of assay: Guinea pig ileum. The note with it: 7b Ke in GPI (ref 8) vs 5k Ke in [35S]GTPγS assay.
Assay [10] deals with MOPr. The note with it: read-out: Ke MOPr antagonist activity in GPI assay; GPI isolated tissue; cited from earlier work.

pEC50, pKd: −log10 of the molar value.

For orientation: Kd means the constant that tells how readily two partners part at equilibrium. Lower therefore signals tighter binding. One may read the pEC50 as the EC50 on a negative log10 scale, so that one unit is a factor of ten.

T2 sequence (P41145 whole entry): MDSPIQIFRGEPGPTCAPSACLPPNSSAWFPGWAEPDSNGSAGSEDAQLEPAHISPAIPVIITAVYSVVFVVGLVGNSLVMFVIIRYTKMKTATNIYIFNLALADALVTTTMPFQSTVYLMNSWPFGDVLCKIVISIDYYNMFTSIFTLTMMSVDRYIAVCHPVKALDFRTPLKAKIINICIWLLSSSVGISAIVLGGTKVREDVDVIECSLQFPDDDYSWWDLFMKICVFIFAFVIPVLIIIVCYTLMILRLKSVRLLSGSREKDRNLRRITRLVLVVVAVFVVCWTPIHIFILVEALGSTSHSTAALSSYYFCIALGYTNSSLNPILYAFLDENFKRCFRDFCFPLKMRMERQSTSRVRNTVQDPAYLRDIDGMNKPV
T3 sequence (P41143 whole entry): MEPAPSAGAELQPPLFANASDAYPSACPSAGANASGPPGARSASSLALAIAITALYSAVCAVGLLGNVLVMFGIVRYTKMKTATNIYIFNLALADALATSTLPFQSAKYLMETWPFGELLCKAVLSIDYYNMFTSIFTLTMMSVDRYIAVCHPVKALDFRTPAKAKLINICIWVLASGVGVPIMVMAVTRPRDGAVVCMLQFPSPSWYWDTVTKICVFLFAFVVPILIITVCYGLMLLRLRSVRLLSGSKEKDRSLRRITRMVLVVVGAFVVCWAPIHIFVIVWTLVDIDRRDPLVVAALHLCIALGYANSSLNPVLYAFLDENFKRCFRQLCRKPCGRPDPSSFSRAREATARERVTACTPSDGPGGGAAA
T1 sequence (P35372 whole entry): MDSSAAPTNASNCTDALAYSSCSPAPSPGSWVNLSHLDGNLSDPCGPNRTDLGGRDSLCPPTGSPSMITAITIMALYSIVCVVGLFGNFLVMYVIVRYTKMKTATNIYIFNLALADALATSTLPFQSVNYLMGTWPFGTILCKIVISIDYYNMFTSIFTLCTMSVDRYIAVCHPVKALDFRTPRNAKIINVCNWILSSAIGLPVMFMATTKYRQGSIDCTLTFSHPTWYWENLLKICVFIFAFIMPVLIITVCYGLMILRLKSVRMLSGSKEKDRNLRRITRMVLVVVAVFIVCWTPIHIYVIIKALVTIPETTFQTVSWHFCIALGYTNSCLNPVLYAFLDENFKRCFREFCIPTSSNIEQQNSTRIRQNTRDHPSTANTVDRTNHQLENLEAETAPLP

As to `CCOC(=O)Cc1c2c(n(Cc3ccccc3)c1O)[C@@H]1Oc3c(O)ccc4c3[C@@]13CCN(CC1CC1)[C@H](C4)[C@]3(O)C2` [4b], the Kd on MOPr [1] turned out to be 6.61 nM; on KOPr [2], 4.3 nM; at DOPr [3] it was 6.79 nM.

Consider `CN1C(=O)CCC2=C1[C@@H]1Oc3c(O)ccc4c3[C@@]13CCN(C)[C@H](C4)[C@]3(O)C2` [5a], for which, at KOPr [2], the Kd was found to be 392 nM.

With `CN1CC[C@]23c4c5ccc(O)c4O[C@H]2C2=C(CCC(=O)N2Cc2ccccc2)C[C@@]3(O)[C@H]1C5` [5b], on KOPr [4] (ratio of Ki, KOPr vs MOPr), the “fold lower binding affinity at KOPr than at MOPr” value is given as approximately 6 fold. The “fold lower binding affinity at DOPr than at MOPr” value on DOPr [5] (ratio of Ki, DOPr vs MOPr) is on record as “around 3 fold”. In addition, the Kd on KOPr [2] was determined as 21.3 nM. In addition, the “%stim DOPr” value on DOPr [3] (% stimulation relative to the standard DPDPE) is recorded as 94%.

`CN1C(=O)[C@H](CCO)CC2=C1[C@@H]1Oc3c(O)ccc4c3[C@@]13CCN(C)[C@H](C4)[C@]3(O)C2` [5c]: the Kd on KOPr [2] came to 321 nM.

On to `CN1C(=O)[C@@H](CCO)CC2=C1[C@@H]1Oc3c(O)ccc4c3[C@@]13CCN(C)[C@H](C4)[C@]3(O)C2` [5d], for which the Kd at KOPr [2] was 2140 nM.

Regarding `CN1CC[C@]23c4c5ccc(O)c4O[C@H]2C2=C(C[C@@H](CCO)C(=O)N2Cc2ccccc2)C[C@@]3(O)[C@H]1C5` [5e], the Kd on MOPr [1] was determined as 32.9 nM; at KOPr [2], 29.3 nM.

On to `CN1CC[C@]23c4c5ccc(O)c4O[C@H]2C2=C(C[C@H](CCO)C(=O)N2Cc2ccccc2)C[C@@]3(O)[C@H]1C5` [5f], for which the Kd at KOPr [2] is 16.8 nM.

Turning to `C[C@@H]1CC2=C([C@@H]3Oc4c(O)ccc5c4[C@@]34CCN(CC3CC3)[C@H](C5)[C@]4(O)C2)N(Cc2ccccc2)C1=O` [5g], the Kd at MOPr [1] came out at 0.5 nM; at KOPr [2], 0.23 nM; at DOPr [3] it was 0.23 nM.

`C[C@H]1CC2=C([C@@H]3Oc4c(O)ccc5c4[C@@]34CCN(CC3CC3)[C@H](C5)[C@]4(O)C2)N(Cc2ccccc2)C1=O` [5h]: the results for the dissociation constant Kd at MOPr [1], at KOPr [2] and at DOPr [3] were 0.6 nM, 2.03 nM and 0.57 nM, respectively.

Turning to `O=C1[C@H](CCO)CC2=C([C@@H]3Oc4c(O)ccc5c4[C@@]34CCN(CC3CC3)[C@H](C5)[C@]4(O)C2)N1Cc1ccccc1` [5i], the figures for the Kd at MOPr [1], on KOPr [2] and at DOPr [3] were 0.35 nM, 0.73 nM and 0.47 nM, respectively. Moreover, the “fold more potent as KOPr antagonist than 17-methyl equivalent” value at KOPr [2] was 40 fold.

Regarding `O=C1[C@@H](CCO)CC2=C([C@@H]3Oc4c(O)ccc5c4[C@@]34CCN(CC3CC3)[C@H](C5)[C@]4(O)C2)N1Cc1ccccc1` [5j], the Kd on MOPr [1] turned out to be 1.62 nM; at KOPr [2], 2.22 nM; at DOPr [3] it was 0.93 nM.

In turn, `O=C1CCC2=C([C@@H]3Oc4c(O)ccc5c4[C@@]34CCN(CC3CC3)[C@H](C5)[C@]4(O)C2)N1Cc1ccccc1` [5k, 1′-Benzyl-17-cyclopropylmethyl-6,7-didehydro-4,5-epoxy-4′,5′-dihydro-3,14-dihydroxy-pyrido[2,3: 6,7-]morphinan-6(1H)-one] came in with a Kd on MOPr [1] of 0.2 nM. At KOPr [2], the affinity, expressed as Kd, was 0.13 nM and the “fold more potent as KOPr antagonist than 17-methyl equivalent” value was “over 160 fold”.

Turning to `O=C1CCC2=C([C@@H]3Oc4c(O)ccc5c4[C@@]34CCN(CC3CC3)[C@H](C5)[C@]4(O)C2)N1CC1CCCCC1` [5n, 1′-Cyclohexylmethyl-17-cyclopropylmethyl-6,7-didehydro-4,5-epoxy-4′,5′-dihydro-3,14-dihydroxy-pyrido[2,3: 6,7-]morphinan-6(1H)-one], the Kd at MOPr [1] worked out at 0.27 nM; at KOPr [2], 0.48 nM.

Regarding `Cc1[nH]c2c(c1Cc1ccccc1)C[C@@]1(O)[C@H]3Cc4ccc(O)c5c4[C@@]1(CCN3CC1CC1)[C@H]2O5` [6b], the “DOPr antagonist selectivity over both MOPr and KOPr” value in the assay with DOPr [6] is 50 fold.

As to `CN1CC[C@]23c4c5ccc(O)c4O[C@H]2c2ncccc2C[C@@]3(O)[C@H]1C5` [7a, reference compound], at MOPr [7], the “fold lower MOPr affinity than 5b” value is on record as 27 fold. Moreover, the “fold lower KOPr affinity than 5b” value at KOPr [4] came to 130 fold. The “fold lower DOPr affinity than 5b” value at DOPr [5] came out at 20 fold. Besides, the pEC50 with MOPr [8] was 5.52.

`Oc1ccc2c3c1O[C@H]1c4ncccc4C[C@@]4(O)[C@@H](C2)N(CC2CC2)CC[C@]314` [7b]: the “fold lower MOPr antagonist potency than 5k” value in the assay on MOPr [9] is reported as 800 fold. For the same compound, at MOPr [10], the pKd is 6.79.
